The nature of assay [1]: Induction of anti-CD3/CD28 antibodies-stimulated human T cell activation at 1 uM assessed fold increase in CD25 expression measured by ELISA assay. The class given is functional, T cell line. A general note: ELISA stands for enzyme-linked immunosorbent assay.
The nature of assay [2]: Induction of anti-CD3 antibodies-stimulated human T cell activation at 1 uM assessed fold increase in IL-2 secretion measured by ELISA assay. Further: reference of the scale not given here. The class given is functional, T cell line.
Assay [3] concerns the target E3 ubiquitin-protein ligase CBL-B (Homo sapiens, UniProt Q13191). Briefly: Inhibition of N-terminal Avi-tagged human CBL-B (36 to 427 residues) incubated with 60 nM Src kinase for 1.5 hrs followed by incubation with fluorescently labeled UbcH5B-Ub for 1 hr and measured by TR-FRET assay. The class given is single protein. In general terms: TR-FRET usually uses a lanthanide donor and a delayed reading to cut background.

A short description of assay [4]: Induction of anti-CD3 antibodies-stimulated human T cell activation at 8 uM assessed fold increase in CD25 expression measured by ELISA assay. Further: reference of the scale not given here. The class given is functional, T cell line.
Assay [5] in a line: Induction of anti-CD3/CD28 antibodies-stimulated human T cell activation at 0.3 uM assessed fold increase in IL-2 secretion measured by ELISA assay. The class given is functional, T cell line.
A short description of assay [6]: Induction of anti-CD3 antibodies-stimulated human T cell activation at 1 uM assessed fold increase in CD25 expression measured by ELISA assay. Further: reference of the scale not given here. The class given is functional, T cell line.
The nature of assay [7]: Induction of anti-CD3/CD28 antibodies-stimulated human T cell activation at 0.3 uM assessed fold increase in CD25 expression measured by ELISA assay. The class given is functional, T cell line.
Assay [8] is described as follows: Induction of anti-CD3/CD28 antibodies-stimulated human T cell activation at 4 uM assessed fold increase in IL-2 secretion measured by ELISA assay. The class given is functional, T cell line.
The nature of assay [9]: Induction of anti-CD3/CD28 antibodies-stimulated human T cell activation at 4 uM assessed fold increase in CD25 expression measured by ELISA assay. The class given is functional, T cell line.
Assay [10] can be described thus: Induction of anti-CD3 antibodies-stimulated human T cell activation at 8 uM assessed fold increase in IL-2 secretion measured by ELISA assay. Further: reference of the scale not given here. The class given is functional, T cell line.
Assay [11] can be described thus: Induction of anti-CD3/CD28 antibodies-stimulated human T cell activation at 1 uM assessed fold increase in IL-2 secretion measured by ELISA assay. The class given is functional, T cell line.

These results are taken from ChEMBL document CHEMBL5050844 (2019).

Bounds are passed on as bounds.

Chain of E3 ubiquitin-protein ligase CBL-B (Q13191 whole entry, the tested form may be a part): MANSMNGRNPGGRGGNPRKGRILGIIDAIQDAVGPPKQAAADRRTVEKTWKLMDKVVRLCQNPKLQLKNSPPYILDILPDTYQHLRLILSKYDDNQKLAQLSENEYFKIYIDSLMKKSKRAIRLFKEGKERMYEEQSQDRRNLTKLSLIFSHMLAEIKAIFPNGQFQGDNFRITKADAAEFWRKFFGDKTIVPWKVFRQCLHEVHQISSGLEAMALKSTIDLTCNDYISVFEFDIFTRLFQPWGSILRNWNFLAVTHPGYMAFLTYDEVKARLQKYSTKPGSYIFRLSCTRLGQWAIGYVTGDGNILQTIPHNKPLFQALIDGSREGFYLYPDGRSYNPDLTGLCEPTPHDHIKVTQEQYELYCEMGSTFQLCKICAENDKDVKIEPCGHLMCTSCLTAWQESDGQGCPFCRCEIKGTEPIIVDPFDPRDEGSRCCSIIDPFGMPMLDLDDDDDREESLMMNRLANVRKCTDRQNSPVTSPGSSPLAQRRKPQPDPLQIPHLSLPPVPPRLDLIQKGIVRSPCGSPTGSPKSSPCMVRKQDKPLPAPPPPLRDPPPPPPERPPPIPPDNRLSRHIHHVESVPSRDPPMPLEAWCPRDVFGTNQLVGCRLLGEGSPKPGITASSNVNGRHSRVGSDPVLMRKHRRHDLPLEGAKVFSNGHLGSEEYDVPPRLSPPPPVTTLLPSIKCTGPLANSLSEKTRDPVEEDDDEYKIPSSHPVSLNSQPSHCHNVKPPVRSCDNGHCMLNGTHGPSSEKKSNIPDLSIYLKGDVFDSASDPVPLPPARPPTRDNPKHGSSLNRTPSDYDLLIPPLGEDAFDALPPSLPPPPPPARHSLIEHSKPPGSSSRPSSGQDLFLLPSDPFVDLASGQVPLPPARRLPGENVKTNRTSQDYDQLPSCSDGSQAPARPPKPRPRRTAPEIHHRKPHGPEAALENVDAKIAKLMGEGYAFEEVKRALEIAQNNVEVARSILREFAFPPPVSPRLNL

As for `C[C@H](Cc1nncn1C)c1cccc(N2Cc3c(cc(C(=O)N4CC(O)C4)cc3C3CC3)C2=O)c1`, the “fold change (FC)” value was 1.01 in [1]; 0.151 in [2]; “>=1.001” in assay [4]; 1.01 in assay [5]; 0.801 in assay [6]; 1.01 in [7]. The “fold change (FC)” value is given as 2.51 in assay [8], 1.01 in assay [9], “>=0.201” in assay [10] and 1.01 in assay [11]. The molecule also registered an IC50 in assay [3] of less than 100 nM.
Turning to `C[C@H](Cc1nncn1C)c1cccc(NC(=O)c2ccnc3ccnn23)c1`, the “fold change (FC)” value in assay [1] was 1.01; in assay [2], 0.051; in [4], “>=1.001”; in [5], 1.01; in assay [6], 0.801; in assay [7], 1.01. In addition, the “fold change (FC)” value worked out at 2.51 in assay [8], 1.01 in [9], 0.101 in assay [10] and 1.01 in [11]. Further, in [3], the IC50 is less than 100 nM.
Turning to `C[C@H](Cc1nncn1C)c1cccc(N2Cc3c(cc(-c4ccn[nH]4)cc3C(F)(F)F)C2=O)c1`, the “fold change (FC)” value was 1.31 in assay [1]; “>=0.201” in [2]; “>=1.001” in assay [4]; 2.51 in [5]; “>=1.001” in assay [6]; 1.01 in assay [7]. The “fold change (FC)” value in [8] is “>=7.5”; in assay [9], 1.31; in assay [10], “>=0.201”; in assay [11] it was 5. Also, in assay [3], the IC50 is less than 100 nM.
Regarding `Cc1cc(C(=O)Nc2cccc([C@H](C)Sc3nncn3C)c2)nc(C(F)(F)F)c1`, the “fold change (FC)” value in [1] was 1.01; in assay [2] it was “<=0.05”; in [4], “>=1.001”; in assay [5], 1.01; in assay [6], 0.601; in [7], 1.01. The “fold change (FC)” value in [8] turned out to be 2.51; in assay [9] it was 1.01; in [10] it was 0.101; in assay [11], 1.01. This molecule also yielded an IC50 in assay [3] of less than 100 nM.
Regarding `Cn1cnnc1CC1(c2cccc(N3Cc4c(cc(CN5CC(C(=O)O)C5)cc4C(F)(F)F)C3=O)c2)COC1`, the “fold change (FC)” value is listed as 1.01 in assay [1]; 0.151 in assay [2]; “>=1.001” in assay [4]; 1.01 in [5]; 0.801 in assay [6]; 1.01 in assay [7]. The “fold change (FC)” value in [8] is 1.01; in [9] it was 1.01; in assay [10], “>=0.201”; in assay [11], 1.01. In addition, the IC50 in [3] is less than 100 nM.
On to `CN1CC2CCC(C1)N2c1cc2c(c(C(F)(F)F)c1)CN(c1cccc([C@@](C)(F)C(F)(F)c3nncn3C)c1)C2=O`, for which the “fold change (FC)” value was 1.51 in assay [1]; “>=0.201” in assay [2]; “>=1.001” in assay [4]; 5 in assay [5]; “>=1.001” in assay [6]; 1.31 in assay [7]. Also, the “fold change (FC)” value was “>=7.5” in assay [8], 1.51 in assay [9], “>=0.201” in assay [10] and “>=7.5” in [11]. Moreover, the IC50 in assay [3] was less than 100 nM.
Turning to `Cc1cc(C(=O)Nc2cccc(C3(Cc4nncn4C)COC3)c2)nc(C2CCC2)n1`, the “fold change (FC)” value is recorded as 1.01 in assay [1]; 0.151 in assay [2]; “>=1.001” in assay [4]; 1.01 in assay [5]; 0.801 in assay [6]; 1.01 in assay [7]. For the same molecule, the “fold change (FC)” value is “>=7.5” in assay [8], 1.31 in [9], “>=0.201” in assay [10] and 5 in [11]. In assay [3], this molecule came in with an IC50 of less than 100 nM.
`Cn1cnnc1C(F)(F)[C@](C)(F)c1cccc(N2Cc3c(cc(CN4C[C@@H](F)[C@@H](F)C4)cc3C(F)(F)F)C2=O)c1`: the “fold change (FC)” value in [1] was 1.31; in assay [2] it was 0.151; in assay [4], “>=1.001”; in assay [5] it was 2.51; in [6], “>=1.001”; in assay [7] it was 1.31. For the same molecule, the “fold change (FC)” value in [8] is “>=7.5”; in assay [9], 1.51; in assay [10], “>=0.201”; in assay [11] it was 5. The same molecule displayed an IC50 in assay [3] of less than 100 nM.
For `C[C@H](Cc1nncn1C)c1cccc(NC(=O)c2nc3c(C(F)(F)F)cccc3[nH]2)c1`, the “fold change (FC)” value in assay [1] is given as 1.51; in [2] it was “>=0.201”; in [4], “>=1.001”; in [5], 2.51; in assay [6] it was “>=1.001”; in assay [7] it was 1.01. For the same molecule, the “fold change (FC)” value in assay [8] is recorded as “>=7.5”; in assay [9], “>=1.76”; in assay [10] it was “>=0.201”; in assay [11], 5. In assay [3], this molecule yielded an IC50 of less than 100 nM.
On to `C[C@@H]1CN(C)CCN1c1cc2c(c(C(F)(F)F)c1)CN(c1cccc([C@@](C)(F)C(F)(F)c3nncn3C)c1)C2=O`, for which the “fold change (FC)” value is on record as 1.01 in [1]; “<=0.05” in assay [2]; “>=1.001” in [4]; 1.01 in assay [5]; 0.801 in [6]; 1.01 in [7]. Also, the “fold change (FC)” value turned out to be 2.51 in [8], 1.31 in [9], 0.101 in assay [10] and 1.01 in assay [11]. This molecule also returned an IC50 in assay [3] of less than 100 nM.
On to `CC(O)c1cc2c(c(C(F)(F)F)c1)CN(c1cccc([C@@](C)(F)C(F)(F)c3nncn3C)c1)C2=O` (stereo not given in full), for which the “fold change (FC)” value in assay [1] is 1.01; in assay [2] it was 0.051; in [4], “>=1.001”; in [5] it was 1.01; in assay [6], 0.801; in assay [7], 1.01. For the same molecule, the “fold change (FC)” value is 5 in assay [8], 1.01 in [9], “>=0.201” in assay [10] and 1.01 in assay [11]. Also, the IC50 in [3] is less than 100 nM.
On to `C[C@H](Cc1nncn1C)c1cccc(N2Cc3c(cc(C(=O)N4CC[C@H](O)C4)cc3C3CC3)C2=O)c1`, for which the “fold change (FC)” value is on record as 1.01 in assay [1]; 0.051 in assay [2]; “>=1.001” in [4]; 1.01 in assay [5]; 0.801 in [6]; 1.01 in assay [7]. In addition, the “fold change (FC)” value in assay [8] is reported as 2.51; in assay [9] it was 1.31; in [10] it was 0.101; in [11], 2.51. In assay [3], this molecule came in with a half-maximal inhibitory concentration (IC50) of less than 100 nM.
On to `C[C@H](Cc1nncn1C)c1cccc(N2Cc3c(cc(C(C)(C)O)cc3C(F)(F)F)C2=O)c1`, for which the “fold change (FC)” value in assay [1] is reported as 1.01; in [2], 0.101; in [4], 0.801; in assay [5] it was “>=7.5”; in assay [6] it was “>=1.001”; in [7] it was “>=1.76”. Besides, the “fold change (FC)” value worked out at 5 in [8], 1.31 in assay [9], 0.151 in assay [10] and 2.51 in assay [11]. The IC50 in [3] is less than 100 nM.
With `Cn1cnnc1C(F)(F)[C@](C)(F)c1cccc(N2Cc3c(cc(CN4CC[C@H](C#N)C4)cc3C(F)(F)F)C2=O)c1`, the “fold change (FC)” value in assay [1] was 1.31; in [2], “>=0.201”; in [4] it was “>=1.001”; in assay [5], 5; in [6] it was “>=1.001”; in assay [7] it was 1.01. Also, the “fold change (FC)” value is given as “>=7.5” in assay [8], 1.31 in assay [9], “>=0.201” in [10] and “>=7.5” in assay [11]. In addition, the IC50 in assay [3] was less than 100 nM.
For the molecule `C[C@H](Cc1nncn1C)c1cccc(N2Cc3c(cc([C@H]4CCCNC4)cc3C(F)(F)F)C2=O)c1` (single isomer, unassigned), the “fold change (FC)” value in assay [1] is 1.51; in assay [2], “>=0.201”; in [4] it was “>=1.001”; in [5] it was 2.51; in assay [6] it was 0.801; in [7], 1.31. In addition, the “fold change (FC)” value in [8] is “>=7.5”; in assay [9], 1.51; in assay [10], “>=0.201”; in assay [11] it was 5. The IC50 in assay [3] is less than 100 nM.

Broadly, the IC50 is the concentration that inhibits the measured activity by half. Low readings indicate inhibition by little substance, high ones a need for much substance.
